Measurements taken from US9663508B2, “Biaryl acyl-sulfonamide compounds as sodium channel inhibitors” (AMGEN INC., priority 2013, dated 2017).
Where two headings read alike, the source gives them in different places.

Experiments:
human Nav 1.5 = human Nav 1.5 (Homo sapiens (Human), UniProt Q14524); assay: Nav 1.5 IonWorks Quattro (IWQ) in vitro assay; type: cell-based
human Nav1.7 = human Nav1.7 (Homo sapiens (Human), UniProt Q15858); assay: Nav 1.7 in vitro PatchXpress (PX) assay; type: cell-based
[1] = in-vitro Nav 1.5 IWQ data, read-out: NAV 1.5 IWQ (IC50)

human Nav1.7, sequence (Q15858 whole entry): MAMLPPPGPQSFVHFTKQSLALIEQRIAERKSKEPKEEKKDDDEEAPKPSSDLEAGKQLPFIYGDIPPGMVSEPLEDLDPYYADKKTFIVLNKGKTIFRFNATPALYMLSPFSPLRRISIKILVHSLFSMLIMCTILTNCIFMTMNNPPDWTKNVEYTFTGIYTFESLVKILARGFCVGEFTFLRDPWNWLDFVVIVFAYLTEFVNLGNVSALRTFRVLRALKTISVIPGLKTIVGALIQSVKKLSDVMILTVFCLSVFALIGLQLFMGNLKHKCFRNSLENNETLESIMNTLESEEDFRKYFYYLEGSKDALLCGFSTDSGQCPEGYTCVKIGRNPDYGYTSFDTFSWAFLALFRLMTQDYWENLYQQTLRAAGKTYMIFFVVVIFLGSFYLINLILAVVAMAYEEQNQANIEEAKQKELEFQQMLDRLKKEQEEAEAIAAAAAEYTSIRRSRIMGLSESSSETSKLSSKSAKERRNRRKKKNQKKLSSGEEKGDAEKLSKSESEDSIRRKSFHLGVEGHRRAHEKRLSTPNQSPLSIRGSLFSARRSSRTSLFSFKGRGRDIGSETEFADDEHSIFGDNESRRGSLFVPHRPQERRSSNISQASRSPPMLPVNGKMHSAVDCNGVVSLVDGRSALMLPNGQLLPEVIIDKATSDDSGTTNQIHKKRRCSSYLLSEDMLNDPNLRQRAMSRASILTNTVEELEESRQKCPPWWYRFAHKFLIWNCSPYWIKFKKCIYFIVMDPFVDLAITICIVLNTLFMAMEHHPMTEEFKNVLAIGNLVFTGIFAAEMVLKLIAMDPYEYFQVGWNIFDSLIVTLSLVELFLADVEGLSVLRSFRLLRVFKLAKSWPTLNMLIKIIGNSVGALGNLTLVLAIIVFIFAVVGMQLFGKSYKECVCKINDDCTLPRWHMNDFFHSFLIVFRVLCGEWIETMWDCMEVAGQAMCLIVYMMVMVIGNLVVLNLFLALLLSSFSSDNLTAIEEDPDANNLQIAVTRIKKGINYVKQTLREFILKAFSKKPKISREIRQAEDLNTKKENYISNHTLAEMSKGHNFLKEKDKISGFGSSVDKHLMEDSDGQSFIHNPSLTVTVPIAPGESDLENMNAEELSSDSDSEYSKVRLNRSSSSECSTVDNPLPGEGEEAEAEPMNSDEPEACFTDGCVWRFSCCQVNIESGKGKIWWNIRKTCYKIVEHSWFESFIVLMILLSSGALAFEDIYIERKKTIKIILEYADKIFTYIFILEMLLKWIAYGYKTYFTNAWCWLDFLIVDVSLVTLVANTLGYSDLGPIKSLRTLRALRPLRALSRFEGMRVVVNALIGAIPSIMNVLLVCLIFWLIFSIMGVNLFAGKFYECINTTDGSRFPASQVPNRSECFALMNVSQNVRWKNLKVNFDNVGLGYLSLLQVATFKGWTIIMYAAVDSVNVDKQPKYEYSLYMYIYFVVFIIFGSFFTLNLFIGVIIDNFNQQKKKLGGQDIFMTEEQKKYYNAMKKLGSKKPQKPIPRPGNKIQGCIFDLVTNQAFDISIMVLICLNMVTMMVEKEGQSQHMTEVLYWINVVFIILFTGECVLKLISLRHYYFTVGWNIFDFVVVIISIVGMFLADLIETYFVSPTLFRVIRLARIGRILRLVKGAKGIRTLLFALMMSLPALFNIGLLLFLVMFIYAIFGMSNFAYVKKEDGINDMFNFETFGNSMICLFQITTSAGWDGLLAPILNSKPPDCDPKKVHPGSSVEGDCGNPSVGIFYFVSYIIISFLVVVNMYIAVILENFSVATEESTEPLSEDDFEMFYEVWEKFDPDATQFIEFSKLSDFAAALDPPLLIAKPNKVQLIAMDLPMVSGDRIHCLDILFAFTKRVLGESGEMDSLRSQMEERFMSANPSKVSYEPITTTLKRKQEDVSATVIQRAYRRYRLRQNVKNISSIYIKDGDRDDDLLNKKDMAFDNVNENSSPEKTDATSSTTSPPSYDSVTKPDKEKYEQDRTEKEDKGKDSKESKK
human Nav 1.5, sequence (Q14524 whole entry): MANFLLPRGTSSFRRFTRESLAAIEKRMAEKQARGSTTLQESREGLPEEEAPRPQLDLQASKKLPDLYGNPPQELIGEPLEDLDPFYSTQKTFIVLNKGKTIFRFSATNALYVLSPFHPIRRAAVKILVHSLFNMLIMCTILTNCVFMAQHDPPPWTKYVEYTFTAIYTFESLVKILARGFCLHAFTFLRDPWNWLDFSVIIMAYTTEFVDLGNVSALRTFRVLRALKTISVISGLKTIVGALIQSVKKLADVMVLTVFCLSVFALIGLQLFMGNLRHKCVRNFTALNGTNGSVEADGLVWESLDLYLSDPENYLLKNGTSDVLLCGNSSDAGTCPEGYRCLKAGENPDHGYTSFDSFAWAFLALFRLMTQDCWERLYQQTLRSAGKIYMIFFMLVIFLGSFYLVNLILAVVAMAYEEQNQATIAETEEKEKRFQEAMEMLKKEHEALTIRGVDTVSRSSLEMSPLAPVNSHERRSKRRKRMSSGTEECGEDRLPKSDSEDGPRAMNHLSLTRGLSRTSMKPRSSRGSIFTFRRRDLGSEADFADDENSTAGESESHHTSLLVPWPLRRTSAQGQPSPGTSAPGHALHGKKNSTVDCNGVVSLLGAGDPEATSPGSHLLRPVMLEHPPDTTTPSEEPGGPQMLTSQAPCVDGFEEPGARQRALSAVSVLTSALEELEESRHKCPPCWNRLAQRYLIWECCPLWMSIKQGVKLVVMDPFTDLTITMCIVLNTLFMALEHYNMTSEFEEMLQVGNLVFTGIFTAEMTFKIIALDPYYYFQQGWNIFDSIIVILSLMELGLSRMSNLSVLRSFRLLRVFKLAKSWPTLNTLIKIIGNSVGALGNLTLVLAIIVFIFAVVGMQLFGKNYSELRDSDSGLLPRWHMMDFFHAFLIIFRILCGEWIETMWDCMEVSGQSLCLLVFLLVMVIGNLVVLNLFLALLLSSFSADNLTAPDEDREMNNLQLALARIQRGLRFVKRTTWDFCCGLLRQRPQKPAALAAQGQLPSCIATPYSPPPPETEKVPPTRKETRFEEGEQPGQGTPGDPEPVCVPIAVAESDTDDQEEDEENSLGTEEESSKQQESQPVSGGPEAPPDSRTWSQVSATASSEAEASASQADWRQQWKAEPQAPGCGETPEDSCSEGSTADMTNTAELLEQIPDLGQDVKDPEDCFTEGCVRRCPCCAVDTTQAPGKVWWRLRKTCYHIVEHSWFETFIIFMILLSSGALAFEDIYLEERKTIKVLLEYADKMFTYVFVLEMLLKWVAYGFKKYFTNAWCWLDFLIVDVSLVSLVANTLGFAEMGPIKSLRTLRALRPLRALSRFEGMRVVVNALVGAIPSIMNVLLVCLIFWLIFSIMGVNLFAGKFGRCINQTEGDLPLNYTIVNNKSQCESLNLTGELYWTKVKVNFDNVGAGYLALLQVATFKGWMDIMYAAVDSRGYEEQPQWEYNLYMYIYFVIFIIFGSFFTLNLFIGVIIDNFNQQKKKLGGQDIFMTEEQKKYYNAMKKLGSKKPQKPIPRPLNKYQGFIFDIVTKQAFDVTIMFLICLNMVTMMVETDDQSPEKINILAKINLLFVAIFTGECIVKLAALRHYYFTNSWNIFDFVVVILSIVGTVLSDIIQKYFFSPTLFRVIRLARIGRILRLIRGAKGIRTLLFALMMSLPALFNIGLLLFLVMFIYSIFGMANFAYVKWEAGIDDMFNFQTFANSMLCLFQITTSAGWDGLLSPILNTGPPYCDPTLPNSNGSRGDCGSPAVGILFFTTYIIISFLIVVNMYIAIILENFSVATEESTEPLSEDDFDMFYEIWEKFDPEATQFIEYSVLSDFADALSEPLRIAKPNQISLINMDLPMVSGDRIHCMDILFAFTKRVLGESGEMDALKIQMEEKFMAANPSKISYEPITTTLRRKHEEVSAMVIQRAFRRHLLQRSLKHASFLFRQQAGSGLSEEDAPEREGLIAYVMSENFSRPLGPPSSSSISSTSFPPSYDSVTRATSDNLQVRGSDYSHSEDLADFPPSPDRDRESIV

Row | Compound | IC50 (human Nav 1.5; read-out: NAV 1.5 IWQ IC50) | IC50 (human Nav1.7) | IC50 (human Nav 1.5; [1]) | IC50 (human Nav1.7; in-vitro Nav 1.7 PX data) | IC50 (human Nav 1.5)
1 | Cc1cc(C(=O)NS(C)(=O)=O)c(F)cc1-c1cnc(N2CCC[C@@H]2c2cccc(Cl)c2)c(Cl)c1 [Example 656, 4-(5-chloro-6-((2R)-2-(3-chlorophenyl)-1-pyrrolidinyl)-3-pyridinyl)-2-fluoro-5-methyl-N-(methylsulfonyl)benzamide, 4-(5-chloro-6-((2S)-2-(3-chlorophenyl)-1-pyrrolidinyl)-3-pyridinyl)-2-fluoro-5-methyl-N-(methylsulfonyl)benzamide] | > 3000 nM | 73.8 nM |  |  | 
2 | CS(=O)(=O)NC(=O)c1cc(Cl)c(-c2cnc(Oc3cc(F)ccc3F)c(Cl)c2)cc1F [Example 597, 5-chloro-4-(5-chloro-6-(2,5-difluorophenoxy)-3-pyridinyl)-2-fluoro-N-(methylsulfonyl)benzamide] | 5390 nM | 69.8 nM |  |  | 
3 | CC[C@@H](Oc1ncc(-c2cc(F)c(C(=O)NS(C)(=O)=O)cc2C)cc1Cl)c1ccc(F)cc1 [Example 650, 4-(5-chloro-6-(((1R)-1-(4-fluorophenyl)propyl)oxy)-3-pyridinyl)-2-fluoro-5-methyl-N-(methylsulfonyl)benzamide] | > 3000 nM | 78.7 nM |  |  | 
4 | Cc1cc(Cl)cc(Cl)c1Oc1ncc(-c2cc(F)c(C(=O)NS(C)(=O)=O)cc2F)cc1Cl [Example 567, 4-(5-chloro-6-(2,4-dichloro-6-methylphenoxy)-3-pyridinyl)-2,5-difluoro-N-(methylsulfonyl)benzamide] | > 4900 nM | 59.8 nM |  |  | 
5 | Cc1cc(C(=O)NS(C)(=O)=O)c(F)cc1-c1cnc(O[C@@H](C)c2cc(Cl)ccc2Cl)c(Cl)c1 [Example 674, 4-(5-chloro-6-((1S)-1-(2,5-dichlorophenyl)ethoxy)-3-pyridinyl)-2-fluoro-5-methyl-N-(methylsulfonyl)benzamide] | 4860 nM | 83.4 nM |  |  | 
6 | Cc1cc(Cl)ccc1Oc1ncc(-c2cc(F)c(C(=O)NS(C)(=O)=O)cc2C)cc1Cl [Example 620, 4-(5-chloro-6-(4-chloro-2-methylphenoxy)-3-pyridinyl)-2-fluoro-5-methyl-N-(methylsulfonyl)benzamide] | > 3000 nM | 76.1 nM |  |  | 
7 | COc1cc(C(=O)NS(C)(=O)=O)ccc1-c1cnc(OCc2ccccc2Cl)c(Cl)c1 [Example 577, 4-(5-chloro-6-((2-chlorobenzyl)oxy)-3-pyridinyl)-3-methoxy-N-(methylsulfonyl)benzamide] | > 3000 nM | 95 nM |  |  | 
8 | Cc1cc(C(=O)NS(C)(=O)=O)c(F)cc1-c1cnc(Oc2ccc(F)c3c2CCC3)c(Cl)c1 [Example 672, 4-(5-chloro-6-((7-fluoro-2,3-dihydro-1H-inden-4-yl)oxy)-3-pyridinyl)-2-fluoro-5-methyl-N-(methylsulfonyl)benzamide] | > 10000 nM | 67.5 nM |  |  | 
9 | Cc1cc(C(=O)NS(C)(=O)=O)c(F)cc1-c1cnc(Oc2cc(F)c(Cl)c(F)c2)c(Cl)c1 [Example 668, 4-(5-chloro-6-(4-chloro-3,5-difluorophenoxy)-3-pyridinyl)-2-fluoro-5-methyl-N-(methylsulfonyl)benzamide] | > 10000 nM | 97 nM |  |  | 
10 | Cc1cc(C(=O)NS(C)(=O)=O)ccc1-c1cnc(Oc2c(C)cc(Cl)cc2Cl)c(Cl)c1 [Example 775, 4-(5-Chloro-6-(2,4-Dichloro-6-Methylphenoxy)-3-Pyridinyl)-3-Methyl-N-(Methyl Sulfonyl)Benzamide] |  |  | > 4900 nM | 78.2 nM | 
11 | Cc1cc(C(=O)NS(C)(=O)=O)c(F)cc1-c1cnc(Oc2cccc(C)c2F)c(Cl)c1 [Example 618, 4-(5-chloro-6-(2-fluoro-3-methylphenoxy)-3-pyridinyl)-2-fluoro-5-methyl-N-(methylsulfonyl)benzamide] | > 3000 nM | 95 nM |  |  | 
12 | COc1cc(C(=O)NS(C)(=O)=O)ccc1-c1cnc(Oc2cc(Cl)cc(Cl)c2)c(Cl)c1 [Example 348, 4-(5-chloro-6-(3,5-dichlorophenoxy)-3-pyridinyl)-3-methoxy-N-(methylsulfonyl)benzamide] | 5740 nM | 34.5 nM |  |  | 
13 | CC[C@@H](Oc1ncc(-c2cc(F)c(C(=O)NS(C)(=O)=O)cc2C)cc1Cl)c1ccc(Cl)cc1 [Example 640, 4-(5-chloro-6-(((1R)-1-(4-chlorophenyl)propyl)oxy)-3-pyridinyl)-2-fluoro-5-methyl-N-(methylsulfonyl)benzamide, 4-(5-chloro-6-(((1S)-1-(4-chlorophenyl)propyl)oxy)-3-pyridinyl)-2-fluoro-5-methyl-N-(methylsulfonyl)benzamide] | > 3000 nM | 90.8 nM |  |  | 
14 | COc1cc(C(=O)NS(C)(=O)=O)ccc1-c1cnc(COc2ccc(Cl)c(Cl)c2)c(Cl)c1 [Example 774, 4-(5-Chloro-6-((3,4-Dichlorophenoxy)-Methyl)Pyridin-3-yl)-3-Methoxy-N-(Methylsulfonyl)Benzamide] |  |  | > 3000 nM | 80.1 nM | 
15 | CS(=O)(=O)NC(=O)c1cc(Cl)c(-c2cnc(Oc3c(Cl)cccc3Cl)c(Cl)c2)cc1F [Example 592, 5-chloro-4-(5-chloro-6-(2,6-dichlorophenoxy)-3-pyridinyl)-2-fluoro-N-(methylsulfonyl)benzamide] | > 3000 nM | 66.1 nM |  |  | 
16 | COc1cc(C(=O)NS(C)(=O)=O)c(F)cc1-c1cnc(Oc2cc(F)cc(F)c2F)c(Cl)c1 [Example 700, 4-(5-chloro-6-(2,3,5-trifluorophenoxy)-3-pyridinyl)-2-fluoro-5-methoxy-N-(methylsulfonyl)benzamide] | > 3000 nM | 91.3 nM |  |  | 
17 | Cc1cc(C(=O)NS(C)(=O)=O)c(F)cc1-c1cnc(Oc2ccc(C)c3c2CCC3)c(Cl)c1 [Example 662, 4-(5-chloro-6-((7-methyl-2,3-dihydro-1H-inden-4-yl)oxy)-3-pyridinyl)-2-fluoro-5-methyl-N-(methylsulfonyl)benzamide] | 3770 nM | 88.2 nM |  |  | 
18 | Cc1cc(Cl)cc(Cl)c1Oc1ncc(-c2ccc(C(=O)NS(C)(=O)=O)cc2OC(F)F)cc1Cl [Example 585, 4-(5-chloro-6-(2,4-dichloro-6-methylphenoxy)-3-pyridinyl)-3-(difluoromethoxy)-N-(methylsulfonyl)benzamide] | 289 nM | 47.2 nM |  |  | 
19 | CC[C@H](Oc1ncc(-c2cc(F)c(C(=O)NS(C)(=O)=O)cc2C)cc1Cl)c1ccc(F)cc1 [Example 651, 4-(5-chloro-6-(((1S)-1-(4-fluorophenyl)propyl)oxy)-3-pyridinyl)-2-fluoro-5-methyl-N-(methylsulfonyl)benzamide] | > 3000 nM | 73.5 nM |  |  | 
20 | CC[C@@H](Oc1ncc(-c2cc(F)c(C(=O)NS(C)(=O)=O)cc2C)cc1Cl)c1ccc(F)c(C)c1 [Example 675, 4-(5-chloro-6-(((1R)-1-(4-fluoro-3-methylphenyl)propyl)oxy)-3-pyridinyl)-2-fluoro-5-methyl-N-(methylsulfonyl)benzamide] | > 10000 nM | 54 nM |  |  | 
21 | COc1cc(C(=O)NS(C)(=O)=O)ccc1-c1cnc(OCc2ccc(Cl)cc2)c(Cl)c1 [Example 576, 4-(5-chloro-6-((4-chlorobenzyl)oxy)-3-pyridinyl)-3-methoxy-N-(methylsulfonyl)benzamide] |  | 70 nM |  |  | > 3000 nM
22 | Cc1cc(C(=O)NS(C)(=O)=O)c(F)cc1-c1cnc(Oc2cc(F)ccc2F)c(Cl)c1 [Example 605, 4-(5-chloro-6-(2,5-difluorophenoxy)-3-pyridinyl)-2-fluoro-5-methyl-N-(methylsulfonyl)benzamide] | > 3000 nM | 45.5 nM |  |  | 
23 | Cc1cc(C(=O)NS(C)(=O)=O)c(F)cc1-c1cnc(Oc2ccc(Cl)c(Cl)c2)c(Cl)c1 [Example 664, 4-(5-chloro-6-(3,4-dichlorophenoxy)-3-pyridinyl)-2-fluoro-5-methyl-N-(methylsulfonyl)benzamide] | > 10000 nM | 80.6 nM |  |  | 
24 | COc1cc(C(=O)NS(C)(=O)=O)c(F)cc1-c1cnc(O[C@H](C)c2ccccc2)c(Cl)c1 [Example 696, 4-(5-chloro-6-((1R)-1-phenylethoxy)-3-pyridinyl)-2-fluoro-5-methoxy-N-(methylsulfonyl)benzamide, 4-(5-chloro-6-((1S)-1-phenylethoxy)-3-pyridinyl)-2-fluoro-5-methoxy-N-(methylsulfonyl)benzamide] | > 3000 nM | 93 nM |  |  | 
25 | Cc1cc(C(=O)NS(C)(=O)=O)c(F)cc1-c1cnc(O[C@H](C)C2CCC2)c(Cl)c1 [Example 641, 4-(5-chloro-6-((1R)-1-cyclobutylethoxy)-3-pyridinyl)-2-fluoro-5-methyl-N-(methylsulfonyl)benzamide, 4-(5-chloro-6-((1S)-1-cyclobutylethoxy)-3-pyridinyl)-2-fluoro-5-methyl-N-(methylsulfonyl)benzamide] | 9320 nM | 111 nM |  |  | 
26 | Cc1cc(C(=O)NS(C)(=O)=O)c(F)cc1-c1cnc(Oc2ccc(Cl)c3ccccc23)c(Cl)c1 [Example 613, 4-(5-chloro-6-((4-chloro-1-naphthalenyl)oxy)-3-pyridinyl)-2-fluoro-5-methyl-N-(methylsulfonyl)benzamide] | > 3000 nM | 92.7 nM |  |  | 
27 | Cc1ccc([C@H]2CCCN2c2ncc(-c3cc(F)c(C(=O)NS(C)(=O)=O)cc3C)cc2Cl)cc1 [Example 657, 4-(5-chloro-6-((2R)-2-(4-methylphenyl)-1-pyrrolidinyl)-3-pyridinyl)-2-fluoro-5-methyl-N-(methylsulfonyl)benzamide, 4-(5-chloro-6-((2S)-2-(4-methylphenyl)-1-pyrrolidinyl)-3-pyridinyl)-2-fluoro-5-methyl-N-(methylsulfonyl)benzamide] | > 3000 nM | 92.9 nM |  |  | 
28 | CCS(=O)(=O)NC(=O)c1ccc(-c2cnc(Oc3c(C)cc(Cl)cc3Cl)c(Cl)c2)c(OC)c1 [Example 788, 4-(5-chloro-6-(2,4-dichloro-6-methylphenoxy)-3-pyridinyl)-N-(ethylsulfonyl)-3-methoxybenzamide] |  |  | 1380 nM | 24.8 nM | 
